Experimental data taken from US5099063A, “Certain phosphinic acid derivatives having antibacterial activity” (Merck & Co., Inc., priority 1990, dated 1992).

Molecular target: T1, dehydropeptidase-I (renal dipeptidase, EC 3.4.13.11) (Sus scrofa, UniProt P22412)
T1 construct: a solubilized preparation of dipeptidase isolated from hog kidneys; from tissue; host or cells: hog kidney
T1 sequence (P22412 17-409): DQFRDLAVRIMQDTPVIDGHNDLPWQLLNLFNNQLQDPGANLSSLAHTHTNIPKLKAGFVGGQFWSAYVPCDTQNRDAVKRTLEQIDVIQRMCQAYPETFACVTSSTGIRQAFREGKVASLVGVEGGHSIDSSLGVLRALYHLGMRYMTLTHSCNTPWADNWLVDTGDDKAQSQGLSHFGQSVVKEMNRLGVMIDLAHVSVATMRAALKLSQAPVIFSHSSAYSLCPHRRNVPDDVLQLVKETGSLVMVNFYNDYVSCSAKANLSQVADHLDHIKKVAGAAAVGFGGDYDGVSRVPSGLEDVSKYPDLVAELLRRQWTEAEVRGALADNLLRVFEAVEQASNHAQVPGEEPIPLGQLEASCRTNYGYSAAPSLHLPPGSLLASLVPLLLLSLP
Test: Renal dehydropeptidase I inhibition (hydrolysis of glycyldehydrophenylalanine)
Assay type: biochemical
Conditions: hog kidney dipeptidase, GDP 0.05 mM, MOPS pH 7.1, 37° C.; Ki stated as concentration which achieves 50% inhibition
Method: This measured the ability of compounds to inhibit hydrolysis of glycyldehydrophenylalanine (GDP) by a solubilized preparation of dipeptidase isolated from hog kidneys. The procedure is as follows: to a 1 ml system containing 50 mM "MOPS" (3-(N-morpholino)propanesulfonic acid) buffer, pH 7.1, is added 5 μg of lyophilized enzyme, and the test compound at a final concentration of 0.1 mM. After a five minute incubation at 37° C., GDP is added to a final concentration of 0.05 mM. […] Inhibition of the enzyme is gauged by comparison to a standard run containing no inhibitor and is expressed as the inhibitor binding constant, Ki.

Ki [µM]	SMILES
0.004	CCCCC(CP(=O)(O)C(C)N)C(=O)O (racemic) [DL; R2=n-butyl]

Molecular target: T2, D-Alanyl-D-Alanine ligase (Enterococcus hirae, UniProt Q47827)
T2 sequence (Q47827 1-358): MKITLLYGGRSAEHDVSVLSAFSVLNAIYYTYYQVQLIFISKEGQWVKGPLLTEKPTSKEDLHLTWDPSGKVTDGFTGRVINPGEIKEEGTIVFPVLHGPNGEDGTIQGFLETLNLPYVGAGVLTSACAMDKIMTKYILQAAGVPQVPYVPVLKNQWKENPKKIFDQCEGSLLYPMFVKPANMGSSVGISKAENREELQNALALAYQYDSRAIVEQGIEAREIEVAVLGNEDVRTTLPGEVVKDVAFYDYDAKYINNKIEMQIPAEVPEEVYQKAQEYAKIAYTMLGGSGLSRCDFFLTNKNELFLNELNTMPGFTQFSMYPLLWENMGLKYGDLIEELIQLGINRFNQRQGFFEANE
Test: D-Alanyl-D-Alanine ligase in vitro inhibition
Assay type: biochemical
Conditions: inhibitor pre-incubated with enzyme 40 minutes at room temperature, then 37° C. for 30 minutes; 0.005M (14C-1)-D-alanine; read-out: D-AlaAla Ligase Inhibition IC50
Method: The ligase enzyme inhibitory activity of compounds of Formula I have been evaluated in vitro with only minor modifications of the procedures of F. C. Neuhaus (Biochemistry 3, 471-480 (1964) and references cited therein) using D-cycloserine as a control and standard ligase inhibitor. The procedure is as follows:
Streptococcus faecalis (ATCC 8043) was grown as described by Neuhaus (J. Biol. Chem., 237:778, 1962). Cell-free extracts were prepared by sonication followed by centrifugation at 27,000×g for 30 minutes. Protein was precipitated with 55% ammonium sulfate. The precipitate was dissolved in 0.05M Tris-Cl buffer (PH 7.0), dialyzed against 0.0025M glutathione and stored in liquid nitrogen. No loss of activity was observed after 1 year.
The assay mixture contained 0.05M Tris-Cl buffer (pH 7.9), 0.01M KCl, 0.008M MgCl2, 0.005M ATP, 0.005M (14C-1)-D-alanine and 5 μof enzyme (specific activity=0.38 units/mg protein). Assay volume was 0.1 ml.
Inhibitors were pre-incubated with enzyme, MgCl2, KCl and buffer, for 40 minutes at room temperature, before addition of ATP and substrate. Samples were subsequently incubated at 37° C. for 30 minutes.
Twenty μl of each sample was applied to the preabsorbent layer of high resolution, pre-channeled silica-gel TLC plates to stop the reaction. Plates were developed in ethanol:ammonium hydroxide: H2 O (11:1:8) for 2-3 hours and the radioactive zones located and integrated with a Berthold Linear Analyzer. […] IC50 's were determined for active compounds (70% inhibition).

SMILES	IC50 [µM]
C=C(CP(=O)(O)[C@@H](C)N)C(=O)O [D; R5=H]	210
CC(N)P(=O)(O)C/C(=C/Cc1ccccc1)C(=O)O (racemic) [DL; R5=benzyl (E isomers)]	210
COC(=O)C(C)CP(=O)(O)C(C)N (stereo not drawn) [DL; R2=methyl; R3=methyl, 1-Aminoethyl-(2-carbomethoxy-1-propyl)phosphinic acid]	60
CCC(CP(=O)(O)[C@@H](C)N)C(=O)O (stereo partly drawn) [D; R2=ethyl; R3=H, 1-D-Aminoethyl-(2l-carboxy-1-n-butyl)phosphinic acid]	45
CC(N)P(=O)(O)CC(CCCc1ccccc1)C(=O)O (stereo not drawn) [DL; R2=phenylpropyl; R3=H, 1-Aminoethyl-[2-carboxy-5-phenyl-1-n-pentyl]-phosphinic acid]	20
CCCCCC=C(CP(=O)(O)C(C)N)C(=O)O (racemic) [DL; R5=n-pentyl, (E,Z isomers), 1-Aminoethyl-(2-carboxy-oct-2-enyl)phosphinic acid (E/Z mixture)]	700
CCCCCCCC(CP(=O)(O)[C@@H](C)N)C(=O)O (stereo partly drawn) [D; R2=n-heptyl; R3=H, 1-D-Aminoethyl-[2-carboxy-1-nonyl]-phosphinic acid]	4
